From US20180251431A1 (VERTEX PHARMACEUTICALS INCORPORATED, priority 2016, published 2018)
pIC50: −log10 of the molar value.

test system: HEK293 cells; experiment: HEK293 VLCFA-LPC IC50 determination (13C-labeled C26:0 LPC by UHPLC/MS); format: cell-based, human; conditions: Homo sapiens, HEK293, 48 h, average of one or more replicates; 13C-labeled C26:0 LPC, 48 hours; read-out: Average HEK293 IC50
Procedure, shortened: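 Suspension HEK293 cells (final 0.5 million/mL after mixing with equal volume) incubated 48 hours with compound plus 13C-acetate (1.0 mg/mL in added media), shaking at 37° C. Lipids extracted with hexane/isopropanol or methanol, C13:0 LPC standard. UHPLC/MS of 13C-labeled C26:0 LPC (638.500/104.100 m/z); IC50 by four-parameter fit.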

Point of comparison: O=C(Nc1ccn(-c2ccccc2)n1)C1(c2ccccc2)CC1CO (stereo not shown) [Compound 444, 2-(hydroxymethyl)-1-phenyl-N-(1-phenyl-1H-pyrazol-3-yl)cyclopropane-1-carboxamide], pIC50 6.59. Against it:
- Cc1nn(C)cc1-n1ccc(NC(=O)C2(c3ccccc3F)CC2)n1 [Compound 403, N-[1-(1,3-dimethylpyrazol-4-yl)pyrazol-3-yl]-1-(2-fluorophenyl)cyclopropanecarboxamide] — lower, < 5.30
- Cc1nnc(-n2ccc(NC(=O)C3(c4ccccc4F)CC3)n2)s1 [Compound 404, 1-(2-fluorophenyl)-N-[1-(5-methyl-1,3,4-thiadiazol-2-yl)pyrazol-3-yl]cyclopropanecarboxamide] — lower, < 5.30
- O=C(Nc1ccn(-c2ncns2)n1)C1(c2ccccc2F)CC1 [Compound 406, 1-(2-fluorophenyl)-N-[1-(1,2,4-thiadiazol-5-yl)pyrazol-3-yl]cyclopropanecarboxamide] — 1.15 log units higher, 7.74
- O=C(Nc1nn(-c2cncc(F)c2)cc1F)C1(c2ccccc2)CC1 [Compound 445, N-[4-fluoro-1-(5-fluoro-3-pyridyl)pyrazol-3-yl]-1-phenyl-cyclopropanecarboxamide] — 0.74 log units lower, 5.85
- COc1cc(-n2ccc(NC(=O)C3(c4ccccc4F)CC3)n2)cnn1 [Compound 447, 1-(2-fluorophenyl)-N-[1-(6-methoxypyridazin-4-yl)pyrazol-3-yl]cyclopropanecarboxamide] — lower, < 5.30

same assay, conditions: Homo sapiens, HEK293, HEK293 cells; average of one or more replicates; read-out: Average HEK293 IC50

Point of comparison: [2H]C([2H])([2H])Oc1ncc(-n2ccc(NC(=O)C3(c4ccccc4F)CC3)n2)cc1F [Compound 441, 1-(2-fluorophenyl)-N-[1-[5-fluoro-6-(trideuteriomethoxy)-3-pyridyl]pyrazol-3-yl]cyclopropanecarboxamide], pIC50 7.36. Against it:
- COc1cc(-n2ccc(NC(=O)C3(c4ncccn4)CC3)n2)ccn1 [Compound 407, N-[1-(2-methoxy-4-pyridyl)pyrazol-3-yl]-1-pyrimidin-2-yl-cyclopropanecarboxamide] — lower, < 5.30
- COc1ncc(-n2ccc(NC(=O)C3(c4ccccc4F)CC3)n2)s1 [Compound 408, 1-(2-fluorophenyl)-N-[1-(2-methoxythiazol-5-yl)pyrazol-3-yl]cyclopropanecarboxamide] — 1.36 log units lower, 6.00
- O=C(Nc1ccn(-c2ccc(OC(F)F)nc2)n1)C1(c2ccccc2F)CC1 [Compound 409, N-[1-[6-(difluoromethoxy)-3-pyridyl]pyrazol-3-yl]-1-(2-fluorophenyl)cyclopropanecarboxamide] — lower, < 5.30
- O=C(Nc1ccn(-c2cnc(Cl)s2)n1)C1(c2ccccc2F)CC1 [Compound 410, N-[1-(2-chlorothiazol-5-yl)pyrazol-3-yl]-1-(2-fluorophenyl)cyclopropanecarboxamide] — 0.36 log units lower, 7.00
- COc1cnccc1-n1ccc(NC(=O)C2(c3ccccc3F)CC2)n1 [Compound 411, 1-(2-fluorophenyl)-N-[1-(3-methoxy-4-pyridyl)pyrazol-3-yl]cyclopropanecarboxamide] — lower, < 5.30
- Cc1nc(C)c(-n2ccc(NC(=O)C3(c4ccccc4F)CC3)n2)s1 [Compound 413, N-[1-(2,4-dimethylthiazol-5-yl)pyrazol-3-yl]-1-(2-fluorophenyl)cyclopropanecarboxamide] — lower, < 5.30
- Cc1nn(C(F)F)cc1-n1ccc(NC(=O)C2(c3ccccc3F)CC2)n1 [Compound 414, N-[1-[1-(difluoromethyl)-3-methyl-pyrazol-4-yl]pyrazol-3-yl]-1-(2-fluorophenyl)cyclopropanecarboxamide] — lower, < 5.30
- Cn1ncnc1-n1ccc(NC(=O)C2(c3ccccc3F)CC2)n1 [Compound 415, 1-(2-fluorophenyl)-N-[1-(2-methyl-1,2,4-triazol-3-yl)pyrazol-3-yl]cyclopropanecarboxamide] — 0.31 log units lower, 7.05
- Cn1nccc1-n1ccc(NC(=O)C2(c3ccccc3F)CC2)n1 [Compound 417, 1-(2-fluorophenyl)-N-[1-(2-methylpyrazol-3-yl)pyrazol-3-yl]cyclopropanecarboxamide] — 0.82 log units lower, 6.54
- O=C(Nc1ccn(-c2cccc(Cl)c2)n1)C1(c2ncccc2F)CC1 [Compound 418, N-(1-(3-chlorophenyl)-1H-pyrazol-3-yl)-1-(3-fluoropyridin-2-yl)cyclopropane-1-carboxamide] — 0.36 log units lower, 7.00
- O=C(Nc1ccn(-c2ccncc2)n1)C1(c2ncccc2F)CC1 [Compound 422, 1-(3-fluoro-2-pyridyl)-N-[1-(4-pyridyl)pyrazol-3-yl]cyclopropanecarboxamide] — 0.66 log units lower, 6.70
- O=C(Nc1ccn(-c2cncc(F)c2)n1)C1(c2ncccc2F)CC1 [Compound 423, 1-(3-fluoropyridin-2-yl)-N-(1-(5-fluoropyridin-3-yl)-1H-pyrazol-3-yl)cyclopropane-1-carboxamide] — within 0.2 log units, 7.34
- O=C(Nc1ccn(-c2cnoc2)n1)C1(c2ccccc2F)CC1 [Compound 424, 1-(2-fluorophenyl)-N-(1-(isoxazol-4-yl)-1H-pyrazol-3-yl)cyclopropane-1-carboxamide] — lower, < 5.30
- Cn1cnc(-n2ccc(NC(=O)C3(c4ccccc4F)CC3)n2)n1 [Compound 425, 1-(2-fluorophenyl)-N-[1-(1-methyl-1,2,4-triazol-3-yl)pyrazol-3-yl]cyclopropanecarboxamide] — lower, < 5.30
- Cn1cncc1-n1ccc(NC(=O)C2(c3ccccc3F)CC2)n1 [Compound 426, 1-(2-fluorophenyl)-N-[1-(3-methylimidazol-4-yl)pyrazol-3-yl]cyclopropanecarboxamide] — lower, < 5.70
- Cn1cnnc1-n1ccc(NC(=O)C2(c3ccccc3F)CC2)n1 [Compound 427, 1-(2-fluorophenyl)-N-[1-(4-methyl-1,2,4-triazol-3-yl)pyrazol-3-yl]cyclopropanecarboxamide] — lower, < 5.70
- COc1ccc(-n2ccc(NC(=O)C3(c4ccccc4F)CC3)n2)c(OC)c1 [Compound 428] — lower, < 5.30
- COc1cc(F)ccc1-n1ccc(NC(=O)C2(c3ccccc3F)CC2)n1 [Compound 429, N-[1-(4-fluoro-2-methoxy-phenyl)pyrazol-3-yl]-1-(2-fluorophenyl)cyclopropanecarboxamide] — lower, < 5.30
- CCOc1ccc(-n2ccc(NC(=O)C3(c4ccccc4F)CC3)n2)cn1 [Compound 430, N-[1-(6-ethoxy-3-pyridyl)pyrazol-3-yl]-1-(2-fluorophenyl)cyclopropanecarboxamide] — lower, < 5.30
- CNc1ncc(-n2ccc(NC(=O)C3(c4ccccc4F)CC3)n2)cc1F [Compound 431, N-[1-[5-fluoro-6-(methylamino)-3-pyridyl]pyrazol-3-yl]-1-(2-fluorophenyl)cyclopropanecarboxamide] — 1.29 log units lower, 6.07
- [2H]C([2H])([2H])Oc1cc(-n2ccc(NC(=O)C3(c4ccccc4F)CC3)n2)ccn1 [Compound 439, 1-(2-fluorophenyl)-N-[1-[2-(trideuteriomethoxy)-4-pyridyl]pyrazol-3-yl]cyclopropanecarboxamide] — 0.26 log units lower, 7.10
- [2H]C([2H])([2H])Oc1ccc(-n2ccc(NC(=O)C3(c4ccccc4F)CC3)n2)cn1 [Compound 440, 1-(2-fluorophenyl)-N-[1-[6-(trideuteriomethoxy)-3-pyridyl]pyrazol-3-yl]cyclopropanecarboxamide] — within 0.2 log units, 7.28
- COc1ncc(-n2nc(NC(=O)C3(c4ccccc4F)CC3)cc2F)cc1F [Compound 442, N-[5-fluoro-1-(5-fluoro-6-methoxy-3-pyridyl)pyrazol-3-yl]-1-(2-fluorophenyl)cyclopropanecarboxamide] — lower, < 5.30
- O=C(Nc1ccn(-c2ccc(F)cc2F)n1)C1(c2ccccc2F)CC1 [Compound 448, N-[1-(2,4-difluorophenyl)pyrazol-3-yl]-1-(2-fluorophenyl)cyclopropanecarboxamide] — 0.51 log units lower, 6.85
- CCOc1cc(-n2ccc(NC(=O)C3(c4ccccc4F)CC3)n2)ccn1 [Compound 449, N-[1-(2-ethoxy-4-pyridyl)pyrazol-3-yl]-1-(2-fluorophenyl)cyclopropanecarboxamide] — lower, < 5.30
- Cc1cc(F)ccc1-n1ccc(NC(=O)C2(c3ncccc3F)CC2)n1 [Compound 450, N-(1-(4-fluoro-2-methylphenyl)-1H-pyrazol-3-yl)-1-(3-fluoropyridin-2-yl)cyclopropane-1-carboxamide] — lower, < 5.30
- Cc1cc(NC(=O)C2(c3ncccc3F)CC2)nn1-c1ccc(F)cc1F [Compound 451, N-[1-(2,4-difluorophenyl)-5-methyl-pyrazol-3-yl]-1-(3-fluoro-2-pyridyl)cyclopropanecarboxamide] — 1.74 log units lower, 5.62
- COc1ncc(-n2ccc(NC(=O)C3(c4ncccc4F)CC3)n2)cc1F [Compound 452, N-[1-(5-fluoro-6-methoxy-3-pyridyl)pyrazol-3-yl]-1-(3-fluoro-2-pyridyl)cyclopropanecarboxamide] — within 0.2 log units, 7.27
- O=C(Nc1ccn(-c2ncccc2Cl)n1)C1(c2ncccc2F)CC1 [Compound 453] — lower, < 5.30
- COc1ncc(-n2ccc(NC(=O)C3(c4ncccc4F)CC3)n2)cn1 [Compound 454, 1-(3-fluoro-2-pyridyl)-N-[1-(2-methoxypyrimidin-5-yl)pyrazol-3-yl]cyclopropanecarboxamide] — lower, < 5.30
- O=C(Nc1ccn(-c2cncc(Cl)c2)n1)C1(c2ncccc2F)CC1 [Compound 455, N-[1-(5-chloro-3-pyridyl)pyrazol-3-yl]-1-(3-fluoro-2-pyridyl)cyclopropanecarboxamide] — 0.36 log units lower, 7.00
- O=C(Nc1ccn(-c2ccc(F)cc2)n1)C1(c2ncccc2F)CC1 [Compound 456, N-[1-(4-fluorophenyl)pyrazol-3-yl]-1-(3-fluoro-2-pyridyl)cyclopropanecarboxamide] — 0.36 log units lower, 7.00
- O=C(Nc1ccn(-c2ccc(C(F)(F)F)cc2)n1)C1(c2ncccc2F)CC1 [Compound 457, 1-(3-fluoro-2-pyridyl)-N-[1-[4-(trifluoromethyl)phenyl]pyrazol-3-yl]cyclopropanecarboxamide] — lower, < 5.30
